Consider two substances from US20250041387A1, “POLYPEPTIDE SEQUENCE OF KDM6B AND APPLICATION OF KDM6B IN REGULATING AND CONTROLLING FUNCTION OF MESENCHYMAL STEM CELL” (BEIJING STOMATOLOGICAL HOSPITAL, CAPITAL MEDICAL UNIVERSITY, priority 2021, published 2025).

In one assay the target is WDR5 synthetic protein (Homo sapiens, UniProt P61964). The assay can be described thus: Polypeptide microarray of KDM6B incubated with biotin-labeled WDR5. The assay is classed as binding. The following applies: FIG. 3A, B; positive = optical density more than 30%. The source says: • (1) Synthesis of polypeptide chip: A polypeptide chip was designed by overlapping and synthesized according to the sequence of KDM6B protein, with a total of two arrays. • (2) Synthesis of polypeptide microarray: A matrix membrane was activated, and placed on a fully automated polypeptide chip synthesizer. A Fmoc-amino acid solution was automatically transferred to a specific position on the activated membrane according to the set procedure, to react with the membrane. The membrane was immersed sequentially into the blocking solution I and II to block side chains, and washed with dimethyl formamide (DMF). The membrane was placed in a deprotection solution to remove the Fmoc protective group at the amino-terminal, then washed with DMF, and dried with ethanol. The above steps were repeated until all polypeptide microarrays were completely synthesized. After the synthesis was completed, the protective groups of the side chains were removed with specific organic reagents. […] The control group was incubated with the blocking solution. • (6) Streptavidin-HRP incubation: The reaction reagent Streptavidin-HRP (High Sensitivity Streptavidin-HRP (prod #21133)) was diluted with the blocking solution in an ratio of 1:10000, and then the polypeptide microarray chip was incubated with 5 ml of the diluted Streptavidin-HRP under shaking at room temperature for 2 hours, and washed. • (7) Color development: ECL luminescence reagent was added, and digital imaging was performed on a Chempchemi digital imager. • (8) Scan of polypeptide microarray chip and data analysis of color spot: The colored polypeptide microarray chip was imaged at 425 nm using the Chempchemi Imaging System with 200 s exposure. The optical density of colored spots was analyzed using TotalLab image analysis software, and the optical density of each colored spot was calculated using the “Spot Edge Average” algorithm in the software, with the optical density of the surrounding background of each colored spot as a reference. […]

Assay [1] relates to senescent mouse bone marrow mesenchymal stem cells. The assay can be described thus: Senescence markers β-gal and P16 in senescent mouse BMSCs. The class given is cell-based.
Assay [2] has as its target KDM6B/WDR5 protein complex (Homo sapiens, UniProt P61964). The assay can be described thus: Co-IP of KDM6B/WDR5 complex in bone marrow mesenchymal stem cells. The arrangement: endogenous in cells; host or cells: bone marrow mesenchymal stem cells. The following applies: FIG. 3C. The assay is classed as cell-based. The protocol:
Protein was extracted from cells of knockout group and overexpression group using IP lysate. The knockout group cells SCAPs-Scramsh and SCAPs-KDM6Bsh, SCAPs-Scramsh and SCAPs-WDR5sh, BMSCs-Scramsh and BMSCs-WDR5sh were added with KDM6B antibody, WDR5 antibody, and IgG antibody, respectively, and then rotated on a shaker at 4° C. overnight. On the next day, the cells were added with Protein A/G beads and rotated on a rotary shaker at 4° C. for 2 hours. A complex of protein-antibody-agarose bead was formed, and the formation of a protein complex of KDM6B and WDR5WB was detected by WB. The overexpression group cells SCAPs-Vector, SCAPs-HA-KDM6B, SCAPs-HA-KDM6B-mut102, and SCAPs-HA-KDM6B-mut114 were added with ProteinA/G beads with HA antibody, and cells SCAPs Vector and SCAPs-Myc-WDR5 were added with ProteinA/G beads with Myc antibody. All cells were incubated overnight to form a complex of protein-antibody-agarose bead. The formation of a protein complex of KDM6B and WDR5 was detected by WB method. • (2) Grouping: Input group (loading amount of 25 μg); antibody group (loading amount of 800 μg, 2 μg of antibody); IgG group (loading amount of 800 μg, 2 μg of antibody). Samples were diluted with lysate. • (3) Preparation of protein A/G beads
The protein A/G beads were washed 4 times with PBS, and centrifuged at 2000 g for 2 minutes. The supernatant was carefully collected, and added with PBS to achieve a content of protein A/G beads of 50%. 30 μL of protein A/G beads was added to each tube, and rotated at 4 degrees overnight. • (4) The samples were centrifuged at 5000 rpm for 30 s at 4° C., and washed 4-5 times with PBS by inverted up and down. Then the samples were centrifuged, and the supernatant was discarded. The samples were added with 30 μL of 2× loading buffer, and placed at 100° C. for 5 minutes. • (5) The supernatant was subjected to electrophoresis.

In assay [3] the test system is bone marrow mesenchymal stem cells. The assay can be described thus: Alizarin red staining and calcium quantification in BMSCs. The class given is cell-based, human. The following applies: 2 weeks in osteogenic induction culture medium, FIG. 4E, F. The protocol: (§1) Result of ALP activity was calculated according to Y/incubation time/protein concentration. • (3) Alizarin red staining • 1) After two weeks of osteogenic induction, the culture medium was discarded. The cells were washed three times with PBS pre-cooled at 4° C., and fixed with 70% ethanol at 4° C. for 1 hour. • 2) The cells were washed 2 times with double distilled water, and stained with 40 mM alizarin red solution (pH 4.2) at room temperature for 10 minutes. The staining was observed by naked eyes. • 3) The cells were washed 3 times with double-distilled water. • (4) Determination of Ca^2+ concentration
To quantitatively determine the concentration of calcium, the cells were added with 10% cetyl pyridinium chloride for dissolution for 30 minutes at room temperature. The OD value was measured at 562 nm using a spectrophotometer, and the calcium ion concentration of the samples was calculated according to the standard curve of calcium ion concentration, with the total protein concentration as an internal reference.

Assay [4] has the same test system. The assay can be described thus: ALP activity of BMSCs after osteogenic induction. The class given is cell-based, human. The following applies: 3 days of induction in osteogenic culture medium, FIG. 4D. The protocol:
• (1) Osteogenic culture medium was purchased from Invitrogen, USA. • (2) Quantification of alkaline phosphatase (ALP) activity • 1) After 3 days of osteogenic induction, the culture medium was discarded, and the cells were washed with PBS twice. • 2) The cells were added with 500 μL of lysis buffer, and incubated at 37° C. for 15 minutes. • 3) The cells were scraped, transferred into a 1.5 mL EP tube, and centrifuged at 14000 rpm at 4° C. for 10 minutes. The supernatant was transferred into a new EP tube to measure the protein concentration, and the procedure was the same as that in Western blot. • 4) The capsule from the alkaline phosphatase kit (Stock substrate Sol.) was dissolved with 5 mL of distilled water under vigorous shaking, and mixed well. • 5) 50 μL of ALP buffer was added to 50 μL of Stock substrate Sol to obtain a mixture. 100 μL of the mixture was added to each well in a 96-well plate, then added with 10 μL of sample, and mixed well. A blank well without sample added was set for zero adjustment. • 6) The plate was incubated at 37° C. for 15 minutes, and the OD value was measured at 405 nm.
as §1

For the substance “FITC-(Acp)-ADLTISHCAADVVRAYGRKKRRQRRR [peptide 114]”, on WDR5 synthetic protein, the “binding degree to WDR5 on polypeptide microarray (optical density of spots)” value was “higher binding degree”. The “expression of senescence markers of β-gal and P16” value in assay [1] is given as “reduce”. In addition, the “opening/blocking of the binding of KDM6B/WDR5 protein complex (Co-IP)” value in assay [2] is given as “could effectively open the binding”. The “mineralization capacity, quantification of calcium ion” value is listed as “significantly higher” in assay [3] and 1.807 in assay [3] (listed as 114 peptide). Further, the values for the ALP activity entry in assay [4] and in assay [4] (listed as 114-peptide) were “promoted” and 4.621, respectively.
For “FITC-(Acp)-KEKSRRVLGNLDLQSYGRKKRRQRRR [peptide 102]”, on WDR5 synthetic protein, the “binding degree to WDR5 on polypeptide microarray (optical density of spots)” value is “higher binding degree”. In addition, in assay [1], the “expression of senescence markers of β-gal and P16” value is listed as “reduce”. In assay [2], the “opening/blocking of the binding of KDM6B/WDR5 protein complex (Co-IP)” value is “could effectively open the binding”. In addition, the “mineralization capacity, quantification of calcium ion” value in assay [3] is recorded as “significantly higher”; in assay [3] (listed as 102 peptide), 1.584. For the same substance, the ALP activity entry in assay [4] is listed as “promoted”; in assay [4] (listed as 102-peptide), 4.218.
